Experimental data published in PubChem BioAssay (NCI).
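Assay format: 96-well plates, 48-hour exposure. Definition used: TGI = concentration required for complete inhibition of growth.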

Key:
Test in all cases: NCI tumour cell line growth inhibition, 48 h
DMS 114 small cell lung = system: DMS 114 small cell lung
DMS 273 small cell lung = system: DMS 273 small cell lung
KM20L2 colon = system: KM20L2 colon
LXFL 529 NSCLC = system: LXFL 529 NSCLC
M19-MEL melanoma = system: M19-MEL melanoma
SNB-78 CNS = system: SNB-78 CNS
HOP-18 NSCLC = system: HOP-18 NSCLC
RXF-631 renal = system: RXF-631 renal
P388 leukemia = system: P388 leukemia
P388/ADR leukemia = system: P388/ADR leukemia
SN12K1 renal = system: SN12K1 renal

| SMILES | TGI (DMS 114 small cell lung) [µM] | TGI (DMS 273 small cell lung) [µM] | TGI (KM20L2 colon) [µM] | TGI (LXFL 529 NSCLC) [µM] | TGI (M19-MEL melanoma) [µM] | TGI (SNB-78 CNS) [µM] | TGI (HOP-18 NSCLC) [µM] | TGI (RXF-631 renal) [µM] | TGI (P388 leukemia) [µM] | TGI (P388/ADR leukemia) [µM] | TGI (SN12K1 renal) [µM] |
| --- | --- | --- | --- | --- | --- | --- | --- | --- | --- | --- | --- |
| CCCCCc1cc(OC(=O)c2c(O)cc(OC)cc2CCCCC)cc(O)c1C(=O)O | 33.9 | 32.4 | 33.3 | 30.5 | 33.8 | 57.6 |  |  |  |  |  |
| COc1ccc2[nH]c3c(c2c1)CCN(C)CC3 |  | > 100 | > 100 |  | > 100 | > 100 | > 100 | > 100 |  |  |  |
| CCCCOC(=O)CNC(=O)OCCCCC#CC#CCCCCOC(=O)NCC(=O)OCCCC | > 100 | > 100 | > 100 | > 100 | > 100 | > 100 | > 100 |  |  |  |  |
| O=C(c1ccc(Cl)cc1)c1ccc(OCC(=O)N2CCN(c3ccccc3)CC2)cc1 | > 100 |  | > 100 | > 100 | > 100 | > 100 | > 100 |  |  |  |  |
| CCOC(=O)/C(O)=C1\C(=O)N(C)C(=O)C1c1ccc(OC)c(OC)c1 (configuration not stated) | > 100 | > 100 | > 100 |  | > 100 | > 100 | > 100 |  | > 100 | > 31.6 | > 100 |
| Cc1ccc(C(=O)N(C2CCCCC2)C2CCCCC2)cc1N=NN(C)C |  | 31.4 |  | 27.8 | 34 | 31.4 |  |  |  |  |  |
| COc1cccc2cc(C)c(C(=O)c3ccccc3)nc12 | > 100 | > 100 | > 100 | > 100 | > 100 | > 100 | > 100 | > 100 |  |  |  |
| N/N=C(\C(=O)Nc1c(Cl)cc([N+](=O)[O-])cc1Cl)C(c1cnc2ccc([N+](=O)[O-])cc2n1)[N+](=O)[O-] (configuration not stated) | > 100 | > 100 | > 100 |  | > 100 | > 100 |  |  |  |  |  |
| CC(=O)C1CC(C)=CCC12C(=O)Nc1ccccc12 (configuration not stated) | > 100 | > 100 | > 100 | > 100 |  |  | > 100 | > 100 |  |  |  |
| COc1ccc2c3c1OC1CC(O)C=CC31CCN(C)C2 (configuration not stated) | > 150 | > 150 | > 150 |  | > 150 | > 117 | > 150 |  | > 150 | > 150 | > 150 |
| COc1cc(OC)c2c(O)cc(CC(C)O)cc2c1 (configuration not stated) | > 100 | > 100 | > 100 | > 100 | > 100 | > 100 | > 100 | > 100 |  |  |  |
| CCc1cccc(C(C)C)c1NC(=O)C(=O)C(Cc1nc2ccccc2[nH]c1=O)C(=O)OC (configuration not stated) | 30.5 | > 100 | > 100 | > 100 | > 100 |  | > 100 |  |  |  |  |
| CCCC/C=C1\CCC(CN2CCCCC2)C1=O (configuration not stated) | 16.1 |  | 32.9 | 3.26 | 34.5 | 27.4 | 16.8 | > 65.2 |  |  |  |
